For data set [1], the system named is SF3B1-K700E mutant-expressing BM cells. Briefly: Nuclear β-catenin confocal microscopy, SF3B1-K700E BM cells. Format: cell-based, mice. To be noted: treated 24 hours. The protocol: (§1) MDS and normal donor BM-MNC and mouse BM cells were stained with 30×FAM-FLICA® Caspase-1 solution at a ratio of 1:30 for 2 hours at 37° C. Cells were washed and cytospins were generated using a 5 minutes centrifugation at 450 rpm. Slides were fixed at 37° C. for 10 minutes using BD Cytofix Fixation Buffer (BD Biosciences), and subsequently washed using PBS. Cells were permeabilized with 0.1% Triton X-100/2% BSA in PBS for 15 minutes at room temperature. After washing with PBS, cells were blocked using 2% BSA in PBS for 30 minutes at room temperature, and washed again. Cells were incubated with the appropriate primary antibody overnight (1:400 for NLRP3, 1:20 for β-catenin) at 4° C. The next day, cells were washed with PBS and incubated with the appropriate secondary antibodies (1:500) for 1 hour at room temperature. After washing, cells were covered with ProLong Gold Antifade Reagent with DAPI prior to the addition of a coverslip (Life Technologies). Co-localization of a-caspase-1 with NLRP3 inflammasome complexes was assessed using a Leica TCS SP5 AOBS Laser Scanning Confocal microscope (Leica Microsystems). Analysis of the inflammasome images was performed with Definiens Developer 2.0 (Definiens AG). The software was used to segment cells based on brightness and size thresholds, followed by a watershed segmentation algorithm. […]

The test system of data set [2] is SF3B1-K700E-expressing mutant BM cells. The data set can be described thus: ROS detection by flow cytometry, SF3B1-K700E BM cells. Format: cell-based, mice. An excerpt:
(§2) ROS were detected using CM-H2DCFDA and CellROX® Deep Red Reagent according to manufacturer's protocol (Life Technologies).

The subject of data set [3] is SF3B1-K700E mutant-expressing BM cells. The data set can be described thus: ASC staining to detect inflammasome formation by flow cytometry, SF3B1-K700E BM cells. Format: cell-based, mice. To be noted: treated 24 hours. The protocol: Staining was carried out as described ([…], et al. J Immunol. 2015 194(1):455-62). Briefly, cell pellets were resuspended in 1 mL of prewarmed BD Permeabilization Buffer III, and incubated on ice for 30 minutes. Cells were washed 2× with staining buffer. Following washing, cells were stained with rabbit-anti-ASC primary antibodies at a 1:1500 dilution and incubated for 90 minutes. Cells were washed, stained with secondary antibodies at a dilution of 1:1500, and incubated for 45 minutes. Cells were washed, and sample acquisitions were carried out using a BD LSR II flow cytometer and FACSDiva software.

Data set [4] has as its system U2AF1 S34F mutant expressing TF-1 cells. Briefly: Nuclear β-catenin confocal microscopy in U2AF1-S34F mutant cells. Format: cell-based. To be noted: treated 24 hours prior to staining.
In data set [5] the test system is normal BM-MNC. Briefly: Nuclear β-catenin confocal microscopy in normal BM-MNC. Format: cell-based, human. The protocol:
as §1

For data set [6], the system named is U937 cells. The data set can be described thus: Nuclear β-catenin confocal microscopy in U937 cells. Format: cell-based. To be noted: 5 μg/mL, 24 hours, compared to untreated cells.
Data set [7] deals with U937 cells. The data set can be described thus: NLRP3 inflammasome confocal microscopy in U937 cells. Format: cell-based. To be noted: 5 μg/mL, 24 hours.
The subject of data set [8] is normal BM-MNC. Briefly: a-caspase-1/NLRP3 confocal microscopy in normal BM-MNC treated with rhS100A9. Format: cell-based, human. To be noted: 5 pig/mL rhS100A9, 24 hours. The protocol:
(§3) MDS and normal donor BM-MNC and mouse BM cells were stained with 30×FAM-FLICA® Caspase-1 solution at a ratio of 1:30 for 2 hours at 37° C. Cells were washed and cytospins were generated using a 5 minutes centrifugation at 450 rpm. Slides were fixed at 37° C. for 10 minutes using BD Cytofix Fixation Buffer (BD Biosciences), and subsequently washed using PBS. Cells were permeabilized with 0.1% Triton X-100/2% BSA in PBS for 15 minutes at room temperature. After washing with PBS, cells were blocked using 2% BSA in PBS for 30 minutes at room temperature, and washed again. Cells were incubated with the appropriate primary antibody overnight (1:400 for NLRP3, 1:20 for β-catenin) at 4° C. The next day, cells were washed with PBS and incubated with the appropriate secondary antibodies (1:500) for 1 hour at room temperature. After washing, cells were covered with ProLong Gold Antifade Reagent with DAPI prior to the addition of a coverslip (Life Technologies). Co-localization of a-caspase-1 with NLRP3 inflammasome complexes was assessed using a Leica TCS SP5 AOBS Laser Scanning Confocal microscope (Leica Microsystems). Analysis of the inflammasome images was performed with Definiens Developer 2.0 (Definiens AG). The software was used to segment cells based on brightness and size thresholds, followed by a watershed segmentation algorithm. Intensity values and Pearson's correlation coefficient were extracted from the segmented cells. For β-catenin image analysis, confocal images were imported into Definiens Tissue Studio v3.0, 64 Dual in .tif format. Cells were separated from background using the RGB thresholds. Nuclei were identified by setting thresholds in the DAPI channel. Typical cells averaged 60 microns. The red intensity (β-catenin) in the nucleus and cytoplasm was established by setting thresholds to low, medium and high in the red channel on a scale of 0-255 in the red channel.

Data set [9] has as its system U937 cells. The data set can be described thus: Comet assay (DNA damage) in U937 cells. Format: cell-based. To be noted: 5 μg/mL, 24 hours, compared to untreated cells. The protocol:
Monocytic U937 cells were treated with 5 μg/mL rhS100A9 for 24 hr.
DNA damage was measured by single cell gel electrophoresis using alkaline CometAssay® according to manufacturer's protocol (Trevigen Inc.).

For data set [10], the system named is U937 cells. Briefly: ROS detection by flow cytometry in U937 cells. To be noted: 5 μg/mL, 24 hours, compared to untreated cells. Format: cell-based.
Source text: as §2

Data set [11] concerns normal BM-MNC. The data set can be described thus: qPCR of pyroptosis-associated genes in normal BM-MNC treated with rhS100A9. Format: cell-based, human. To be noted: 1 μg/mL, 24 hours, n=2. The protocol:
PCR RNA was isolated from BM-MNC using the RNeasy Mini Kit (Qiagen). cDNA was produced using the iScript cDNA Synthesis Kit (Bio-Rad). Sequences for primers can be found in Table 1. GAPDH mRNA was used for transcript normalization. cDNA was amplified using the iQ SYBR Green Supermix and the CFX96 Real-Time PCR Detection System (Bio-Rad). PCR conditions were as follows: 10 minutes at 95° C., followed by 40 cycles of amplification (15 seconds at 95° C. and 1 minute at 60° C.). Relative gene expression was calculated using the […] method.

Data set [12] deals with U937 cells. The data set can be described thus: Pore formation, ethidium bromide uptake in U937 cells. Format: cell-based. To be noted: 5 μg/mL rhS100A9, 12.5 μg/mL ethidium bromide.
The test system of data set [13] is U937 cells. The data set can be described thus: S100A9 flow cytometry experiments in U937 cells (a-caspase-1/annexin-V). Format: cell-based. The protocol:
Monocytic U937 cells were treated with the indicated concentrations of rhS100A9 for 24 hours, or with 5 μg/mL rhS100A9 for the indicated time points. Subsequently, cells were stained with 30×FAM-FLICA® Caspase-1 solution at a ratio of 1:30 for 2 hours at 37° C. Cells were washed, resuspended in 1× binding buffer, and stained with Annexin-V:PE at a dilution of 1:30 for 15 minutes at room temperature. 1× binding buffer was added to a final volume of 350 μL. Sample acquisitions were carried out using a BD FACSCalibur flow cytometer (BD Biosciences). Data were analyzed using FlowJo 9.7.5 software.

In data set [14] the test system is BM cells isolated from WT mice. The data set can be described thus: a-caspase-1/NLRP3 confocal microscopy in WT mouse BM cells treated with rhS100A9. Format: cell-based. To be noted: 5 μg/mL, 24 hours. The protocol:
as §3

As to `c1ccc2c(c1)[I+]c1ccccc1-2` [DPI], in data set [1], the “percentage of cells with elevated levels of nuclear β-catenin” value was “significantly reduced”. For the same molecule, in data set [2], the “ROS MFI” value was “extinguished below the level of WT controls” and the “mean percentage of ROS+ cells” value is “extinguished below the level of WT controls”. In data set [3], the “inflammasome formation (ASC oligomerization)” value is “significantly reduced”. The “β-catenin activation (nuclear β-catenin)” value in data set [4] is given as “effectively reduced β-catenin activation”.

Regarding `CC(=O)N[C@@H](CS)C(=O)O` [NAC, N-acetylcysteine], the “percentage of cells with elevated levels of nuclear β-catenin” value in [1] is recorded as “significantly reduced”. In data set [2], the “ROS MFI” value is “extinguished below the level of WT controls” and the “mean percentage of ROS+ cells” value is listed as “extinguished below the level of WT controls”. Moreover, the “S100A9-triggered nuclear translocation of β-catenin” value in [5] (S100A9 treated normal BM-MNC) is recorded as “abolished”. In addition, the “inflammasome formation (ASC oligomerization)” value in data set [3] is “significantly reduced”. Also, the “β-catenin activation (nuclear β-catenin)” value in [4] is “effectively reduced β-catenin activation”.

In the case of “rhS100A9: recombinant human S100A9, DAMP/alarmin protein, TLR4 and CD33 ligand”, the “levels of nuclear (activated) β-catenin” value in data set [6] is given as “marked increases”. For the same molecule, the “levels of NLRP3 inflammasome complexes” value in [7] was “markedly increased”. For the same molecule, in data set [5] (5 μg/mL, 24 hours, compared to controls), the “levels of nuclear β-catenin” value is “elevated levels”. In [8], the a-caspase-1 levels induced is on record as 2.5 fold and the “formation of NLRP3 inflammasomes induced” value is listed as 2.9 fold. Moreover, the NLRP3 levels induced in data set [8] (p=0.064) worked out at 47.1 fold. Further, the “increase in DNA damage” value in data set [9] stood at 4.1 fold. Further, the “increase in the mean percentage of ROS-positive cells” value in data set [10] stood at 2.9 fold. The “expression of pyroptosis-associated genes” value in [11] was “significantly up-regulated”. Besides, the “uptake of ethidium bromide” value in data set [12] is “rapid and substantial uptake”. Further, in [13] (5 μg/mL, over time), the “activation of caspase-1” value is “time-dependent increase”. Besides, in [13] (increasing concentrations, 24 hours), the “fraction of pyroptotic cells” value is recorded as “concentration-dependent increase”. Besides, in [14] (p=0.023), the inflammasome complexes result was “marked induction”. The “MFI of NLRP3” value in [14] (versus controls, p=0.017) is given as “significantly increased”. The “MFI of a-caspase-1” value in data set [14] (versus controls, p=7.5×10^−3) is “significantly increased”.

Values taken from patent US10688077B2, “Inflammasome activation in myelodysplastic syndromes” (H. Lee Moffitt Cancer Center and Research Institute, Inc., priority 2015, dated 2020).
